These results are taken from patent publication US12030878B2 (BRISTOL-MYERS SQUIBB COMPANY, priority 2017, dated 2024).

Common to all, as to type: cell-based
The target of one experiment is T1, human TLR8 (Homo sapiens, UniProt Q9NR97).
T1 construct: host or cells: HEK-Blue cells
T1 sequence (Q9NR97 27-1041): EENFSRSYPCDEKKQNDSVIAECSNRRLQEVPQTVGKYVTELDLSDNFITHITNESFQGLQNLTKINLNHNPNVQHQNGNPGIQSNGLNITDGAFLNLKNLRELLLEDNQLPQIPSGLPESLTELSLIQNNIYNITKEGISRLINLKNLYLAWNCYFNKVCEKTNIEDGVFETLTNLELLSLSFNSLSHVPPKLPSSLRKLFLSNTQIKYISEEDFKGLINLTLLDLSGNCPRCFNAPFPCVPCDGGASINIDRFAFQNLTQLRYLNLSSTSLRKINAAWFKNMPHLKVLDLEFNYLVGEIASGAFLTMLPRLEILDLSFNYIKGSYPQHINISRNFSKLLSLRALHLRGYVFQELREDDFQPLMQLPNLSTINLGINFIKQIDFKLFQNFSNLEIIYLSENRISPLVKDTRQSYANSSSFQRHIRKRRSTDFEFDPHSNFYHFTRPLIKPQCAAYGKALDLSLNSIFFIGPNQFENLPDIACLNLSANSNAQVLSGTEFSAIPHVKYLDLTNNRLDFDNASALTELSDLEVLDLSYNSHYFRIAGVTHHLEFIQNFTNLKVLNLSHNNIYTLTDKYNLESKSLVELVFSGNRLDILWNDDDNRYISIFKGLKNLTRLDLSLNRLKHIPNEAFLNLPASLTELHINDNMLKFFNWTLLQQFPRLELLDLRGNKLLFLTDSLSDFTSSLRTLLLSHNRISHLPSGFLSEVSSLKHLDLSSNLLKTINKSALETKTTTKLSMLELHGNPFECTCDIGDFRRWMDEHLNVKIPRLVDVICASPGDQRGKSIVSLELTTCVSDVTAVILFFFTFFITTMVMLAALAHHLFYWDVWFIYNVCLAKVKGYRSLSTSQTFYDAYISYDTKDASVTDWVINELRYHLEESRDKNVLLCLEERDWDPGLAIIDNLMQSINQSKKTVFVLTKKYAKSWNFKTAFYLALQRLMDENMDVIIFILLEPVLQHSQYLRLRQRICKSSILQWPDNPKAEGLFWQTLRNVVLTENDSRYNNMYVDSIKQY
Nature of the experiment: TLR8 inhibition reporter assay (HEK-Blue SEAP). Conditions: HEK-Blue cells overexpressing human TLR8, stimulated with R848 15.9 μM, 22 hour incubation. The procedure, abridged: (§1)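 SEAP read-out via HEK-Blue Detection medium after 22 h at 37 °C; percent inhibition relative to agonist-plus-DMSO and known-inhibitor wells. Agonists: TLR7 gardiquimod 7.5 μM, TLR8 R848 15.9 μM, TLR9 ODN2006 5 nM. Dose range 0.05 nM–50 μM, 30 min compound pre-treatment at RT.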
(In general: Reporter assays use an easily measured gene product as a stand-in for the process of interest.)

The target in another experiment is T2, human TLR7 (Homo sapiens, UniProt Q9NYK1).
T2 construct: host or cells: HEK-Blue cells
T2 sequence (Q9NYK1 27-1049): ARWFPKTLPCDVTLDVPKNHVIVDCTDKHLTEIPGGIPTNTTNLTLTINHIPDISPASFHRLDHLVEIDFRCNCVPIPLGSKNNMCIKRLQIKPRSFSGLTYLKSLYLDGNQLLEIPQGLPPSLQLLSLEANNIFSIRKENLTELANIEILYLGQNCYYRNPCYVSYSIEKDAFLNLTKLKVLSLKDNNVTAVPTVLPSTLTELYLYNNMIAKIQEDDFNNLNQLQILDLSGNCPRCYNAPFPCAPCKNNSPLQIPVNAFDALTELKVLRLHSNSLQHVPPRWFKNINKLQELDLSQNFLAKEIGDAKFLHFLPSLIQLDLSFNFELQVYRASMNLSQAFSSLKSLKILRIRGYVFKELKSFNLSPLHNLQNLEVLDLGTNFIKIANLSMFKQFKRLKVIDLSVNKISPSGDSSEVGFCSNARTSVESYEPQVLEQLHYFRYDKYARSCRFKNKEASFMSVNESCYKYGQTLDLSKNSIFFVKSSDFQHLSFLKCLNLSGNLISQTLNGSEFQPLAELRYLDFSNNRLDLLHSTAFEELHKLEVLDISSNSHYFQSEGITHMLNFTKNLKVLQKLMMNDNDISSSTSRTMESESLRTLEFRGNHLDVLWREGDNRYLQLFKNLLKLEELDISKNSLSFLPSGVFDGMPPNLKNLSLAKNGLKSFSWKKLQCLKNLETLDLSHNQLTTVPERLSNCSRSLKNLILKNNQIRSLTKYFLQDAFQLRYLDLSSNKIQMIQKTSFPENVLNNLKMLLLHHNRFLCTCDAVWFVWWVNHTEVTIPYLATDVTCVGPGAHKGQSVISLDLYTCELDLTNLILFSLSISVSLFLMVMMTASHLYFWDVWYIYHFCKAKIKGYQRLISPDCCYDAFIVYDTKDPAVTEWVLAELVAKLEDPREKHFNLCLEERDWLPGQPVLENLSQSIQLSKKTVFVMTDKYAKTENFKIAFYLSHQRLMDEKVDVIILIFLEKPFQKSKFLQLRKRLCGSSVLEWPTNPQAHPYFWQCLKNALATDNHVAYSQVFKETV
As to the kind of experiment: TLR7 inhibition reporter assay (HEK-Blue SEAP). Conditions: HEK-Blue cells overexpressing human TLR7, stimulated with gardiquimod 7.5 μM, 22 hour incubation. The procedure, abridged:
as §1

The target in another experiment is T3, human TLR9 (Homo sapiens, UniProt Q9NR96).
T3 construct: host or cells: HEK-Blue cells
T3 sequence (Q9NR96 26-1032): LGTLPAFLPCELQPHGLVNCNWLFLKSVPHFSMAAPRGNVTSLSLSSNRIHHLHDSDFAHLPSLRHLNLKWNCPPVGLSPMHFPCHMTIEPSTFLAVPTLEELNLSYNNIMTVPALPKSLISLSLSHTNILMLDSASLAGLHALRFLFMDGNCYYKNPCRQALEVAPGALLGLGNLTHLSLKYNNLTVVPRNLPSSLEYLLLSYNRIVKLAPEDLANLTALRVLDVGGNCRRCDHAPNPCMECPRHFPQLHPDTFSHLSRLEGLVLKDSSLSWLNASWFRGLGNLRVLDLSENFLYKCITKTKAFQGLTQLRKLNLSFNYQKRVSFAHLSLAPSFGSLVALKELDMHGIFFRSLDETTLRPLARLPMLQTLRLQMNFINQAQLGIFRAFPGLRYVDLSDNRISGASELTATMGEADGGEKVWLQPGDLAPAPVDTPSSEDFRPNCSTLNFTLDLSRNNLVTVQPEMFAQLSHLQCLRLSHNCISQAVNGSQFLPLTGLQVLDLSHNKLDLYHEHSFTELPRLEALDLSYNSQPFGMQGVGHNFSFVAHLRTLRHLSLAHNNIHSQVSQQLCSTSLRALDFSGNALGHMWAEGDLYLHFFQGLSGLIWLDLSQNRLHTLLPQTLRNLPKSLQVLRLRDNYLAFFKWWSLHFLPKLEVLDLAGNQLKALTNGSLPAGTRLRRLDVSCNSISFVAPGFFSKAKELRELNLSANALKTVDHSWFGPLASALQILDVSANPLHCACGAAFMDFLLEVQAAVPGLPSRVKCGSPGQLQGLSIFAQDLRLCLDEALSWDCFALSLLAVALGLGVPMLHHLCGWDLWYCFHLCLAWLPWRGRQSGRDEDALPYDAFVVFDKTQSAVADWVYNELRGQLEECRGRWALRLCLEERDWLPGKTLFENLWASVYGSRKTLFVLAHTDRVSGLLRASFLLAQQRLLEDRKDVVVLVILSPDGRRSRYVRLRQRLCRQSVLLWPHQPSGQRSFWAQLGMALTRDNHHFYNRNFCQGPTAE
Nature of the experiment: TLR9 inhibition reporter assay (HEK-Blue SEAP). Particulars: HEK-Blue cells overexpressing human TLR9, stimulated with ODN2006 5 nM, 22 hour incubation. The procedure, abridged:
as §1

For orientation: IC50 means the concentration that gives 50% inhibition. Regarding `COc1ccc(-c2[nH]c3ccc(OCC(=O)NCCC(C)(C)O)cc3c2C(C)C)cc1OC` [Example 153, 2-((2-(3,4-dimethoxyphenyl)-3-isopropyl-1H-indol-5-yl)oxy)-N-(3-hydroxy-3-methylbutyl)acetamide], the IC50 on human TLR8 was 2530 nM; at human TLR7, 461 nM; against human TLR9, greater than 50000 nM.
Taken in the same sequence, the figures for `COc1ccc(-c2[nH]c3ccc(OCC(=O)NC[C@@H](F)C(C)(C)O)cc3c2C(C)C)cc1OC` [Example 154, (R)-2-((2-(3,4-dimethoxyphenyl)-3-isopropyl-1H-indol-5-yl)oxy)-N-(2-fluoro-3-hydroxy-3-methylbutyl) acetamide] were 1890 nM, 899 nM and greater than 50000 nM.
The corresponding values for `Cc1cc(-c2[nH]c3ccc(OCC(=O)NCCC(C)(C)O)cc3c2C(C)C)ccn1` [Example 155, N-(3-hydroxy-3-methylbutyl)-2-((3-isopropyl-2-(2-methylpyridin-4-yl)-1H-indol-5-yl)oxy)acetamide] are 731 nM, 778 nM and greater than 50000 nM.
The corresponding values for `Cc1cc(-c2[nH]c3ccc(OCC4CCNCC4)cc3c2C(C)C)ccn1` [Example 156] are 3.2 nM, 12.9 nM and 721 nM.
Take `Cc1cc(-c2[nH]c3ccc(O[C@@H]4CCNC4)cc3c2C(C)C)ccn1` [Example 157, (R)-3-isopropyl-2-(2-methylpyridin-4-yl)-5-(pyrrolidin-3-yloxy)-1H-indole]: the IC50 against human TLR8 was found to be 7 nM; against human TLR7, 8.7 nM; against human TLR9, 1910 nM.
Turning to `COc1ccc(-c2[nH]c3ccc(OCCC4CCNCC4)cc3c2C(C)C)cc1OC` [Example 158, 2-(3,4-dimethoxyphenyl)-3-isopropyl-5-(2-(piperidin-4-yl)ethoxy)-1H-indole], the figures for the IC50 against human TLR8, at human TLR7 and against human TLR9 were 27.6 nM, 49 nM and 2990 nM, respectively.
For `COc1ccc(-c2[nH]c3ccc(OCC4CCNCC4)cc3c2C(C)C)cc1OC` [Example 159, 2-(3,4-dimethoxyphenyl)-3-isopropyl-5-(piperidin-4-ylmethoxy)-1H-indole], the IC50 at human TLR8 was 25.6 nM; at human TLR7 it was 36.1 nM; against human TLR9 it was 2320 nM.
The corresponding values for `COc1ccc(-c2[nH]c3ccc(OCC4CCN(Cc5ccccc5)CC4)cc3c2C(C)C)cc1OC` [Example 160, 5-((1-benzylpiperidin-4-yl)methoxy)-2-(3,4-dimethoxyphenyl)-3-isopropyl-1H-indole] are 128 nM, 275 nM and 7570 nM.
Taken in the same sequence, the figures for `CCc1c(-c2ccnc(C)c2)[nH]c2ccc(OCC3CCNCC3)cc12` [Example 161, 3-ethyl-2-(2-methylpyridin-4-yl)-5-(piperidin-4-ylmethoxy)-1H-indole] were 4.2 nM, 22 nM and 218 nM.
Consider `CCc1c(-c2ccc(OC)c(OC)c2)[nH]c2ccc(OCC3CCNCC3)cc12` [Example 162, 2-(3,4-dimethoxyphenyl)-3-ethyl-5-(piperidin-4-ylmethoxy)-1H-indole], for which the IC50 at human TLR8 is 22.8 nM; at human TLR7, 105 nM; on human TLR9, 2530 nM.
For the molecule `CCc1c(-c2ccnc(C)c2)[nH]c2ccc(OC3CCNCC3)cc12` [Example 163, 3-ethyl-2-(2-methylpyridin-4-yl)-5-(piperidin-4-yloxy)-1H-indole], the IC50 on human TLR8 was determined as 9 nM; against human TLR7 it was 146 nM; at human TLR9, 1810 nM.
Taken in the same sequence, the figures for `Cc1cc(-c2[nH]c3ccc(OC4CCNCC4)cc3c2C(C)C)ccn1` [Example 164, 3-isopropyl-2-(2-methylpyridin-4-yl)-5-(piperidin-4-yloxy)-1H-indole] were 1.1 nM, 11.2 nM and 1080 nM.
With `Cc1cc(-c2[nH]c3ccc(OCc4ccccc4)cc3c2C(C)C)ccn1` [Example 165, 5-(benzyloxy)-3-isopropyl-2-(2-methylpyridin-4-yl)-1H-indole], the IC50 against human TLR8 was 1290 nM; against human TLR7 it was 5920 nM; against human TLR9, greater than 50000 nM.
The corresponding values for `Cc1cc(-c2[nH]c3ccc(OCCN4CCCC4)cc3c2C(C)C)ccn1` [Example 166, 3-isopropyl-2-(2-methylpyridin-4-yl)-5-(2-(pyrrolidin-1-yl)ethoxy)-1H-indole] are 3.1 nM, 65.1 nM and 987 nM.
Taken in the same sequence, the figures for `Cc1cc(-c2[nH]c3ccc(OCCN(C)C)cc3c2C(C)C)ccn1` [Example 167, 2-((3-isopropyl-2-(2-methylpyridin-4-yl)-1H-indol-5-yl)oxy)-N,N-dimethylethan-1-amine] were 3.1 nM, 69 nM and 1920 nM.
